Data reported in patent publication US20140155445A1, “Compounds and Methods for Treating Cancer and Diseases of the Central Nervous System” (Osta Biotechnologies Inc., priority 2007, published 2014).
Structures can show the parent of a compound that is named as a salt. Where two headings read alike, the source gives them in different places.

Legend:
[1] = molecular target: T1, HO-1 (rat spleen) (Rattus norvegicus, UniProt P06762); assay: HO enzymatic activity in rat spleen microsomal fraction (CO formed from methemalbumin, gas chromatography); assay type: biochemical
T1 construct: Spleen microsomes were used as a source of HO-1; from tissue; host or cells: spleen microsomal fraction of adult male Sprague-Dawley rats
T1 sequence (P06762 1-289): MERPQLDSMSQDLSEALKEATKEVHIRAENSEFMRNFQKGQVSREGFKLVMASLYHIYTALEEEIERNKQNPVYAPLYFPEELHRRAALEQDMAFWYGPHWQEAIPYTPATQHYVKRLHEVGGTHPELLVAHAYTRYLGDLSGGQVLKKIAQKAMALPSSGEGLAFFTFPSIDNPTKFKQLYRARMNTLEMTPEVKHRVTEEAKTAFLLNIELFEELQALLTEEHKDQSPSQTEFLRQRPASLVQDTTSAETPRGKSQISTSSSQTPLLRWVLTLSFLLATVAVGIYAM
Experimental: (§1) Incubations for HO activity analysis were done under conditions for which the rate of CO formation (pmol CO×min^−1×mg protein^−1) was linear with respect to time and microsomal protein concentration. Briefly, reaction mixtures (150 μL) consisting of 100 mM phosphate buffer (pH 7.4), 50 μM methemalbumin, and 1 mg/mL protein were pre-incubated with the inhibitors at final concentrations ranging from 0.1-100 μM for 10 minutes at 37° C. Reactions were initiated by adding NADPH at a final concentration of 1 mM and incubations were performed for an additional 15 minutes at 37° C.
(§2) Incubations for HO activity analysis were done under conditions for which the rate of CO formation (pmol CO/mg protein/minute) was linear with respect to time and microsomal protein concentration. Briefly, reaction mixtures (150 μL) consisting of 100 mM phosphate buffer (pH 7.4), 50 μM methemalbumin and 1 mg/mL protein were pre-incubated with the vehicle (ethanol or water in which the inhibitors were dissolved), or inhibitors at final concentrations ranging from 0.1-1000 μM for 10 minutes at 37° C. Reactions were initiated by adding β-NADPH at a final concentration of 1 mM and incubations were carried out for an additional 15 minutes at 37° C. Reactions were stopped by instantly freezing the reaction mixture on pulverized dry ice and CO formation was measured by gas chromatography using a TA 3000R Process Gas Analyzer (Trace Analytical/Ametek, Newark, Del., USA).
(§3) The values on the abscissa represent the decimal logarithm of the inhibitor's concentration (in μM), whereas the values of the activity on the ordinate are expressed as a percentage of the control experiments without inhibitor.
(§4) The IC50 values for the replicate experiments were employed to generate the reported standard deviation value.

[2] = molecular target: T2, HO-2 (rat brain) (Rattus norvegicus, UniProt P23711); assay: HO enzymatic activity in rat brain microsomal fraction (CO formed from methemalbumin, gas chromatography); assay type: biochemical
T2 construct: brain microsomes were used as a source of HO-2; from tissue; host or cells: brain microsomal fraction of adult male Sprague-Dawley rats
T2 sequence (P23711 1-315): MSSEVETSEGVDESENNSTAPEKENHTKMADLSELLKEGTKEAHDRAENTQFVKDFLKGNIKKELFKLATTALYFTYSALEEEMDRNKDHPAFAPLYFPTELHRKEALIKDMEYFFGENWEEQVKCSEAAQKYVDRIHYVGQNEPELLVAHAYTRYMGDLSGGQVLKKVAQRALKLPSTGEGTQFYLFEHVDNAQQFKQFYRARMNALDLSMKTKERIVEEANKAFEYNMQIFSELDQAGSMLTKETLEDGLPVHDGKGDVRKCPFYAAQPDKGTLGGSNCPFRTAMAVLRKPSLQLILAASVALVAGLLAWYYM
Experimental: as §1, §2, §3, §4

[3] = rat spleen microsomes, average ± standard deviation of replicate experiments, read-out: IC50 HO-1 (rat spleen)/μM
[4] = rat brain microsomes, average ± standard deviation of replicate experiments, read-out: IC50 HO-2 (rat brain)/μM
[5] = rat spleen microsomes, average ± standard deviation of replicate experiments
[6] = rat brain microsomes, average ± standard deviation of replicate experiments

Structure (SMILES) | IC50 [1, 3] [µM] | IC50 [2, 4] [µM] | also measured
Brc1ccc(CNCc2cccnc2)cc1 | > 100 | > 100 | 
c1ccc(CNCCCn2ccnc2)cc1 | > 100 | > 100 | 
c1ccc2[nH]c(NC3CCNCC3)nc2c1 | > 100 | > 100 | 
CCOC(=O)N1CCC(Nc2nc3ccccc3[nH]2)CC1 | > 100 | > 100 | 
CCOC(=O)N1CCC(Nc2nc3ccccc3n2Cc2ccc(F)cc2)CC1 | > 100 | > 100 | 
c1cn(C2C3CC4CC(C3)CC2C4)cn1 (stereo not shown) | > 100 | > 100 | 
O=C(Cn1ccnc1)c1cccs1 | > 100 | > 100 | 
COc1ccc(CCN2CCC(Nc3nc4ccccc4[nH]3)CC2)cc1 |  |  | IC50 [1]: > 100 µM; IC50 [2]: > 100 µM
COc1ccc(CCN2CCC(Nc3nc4ccccc4n3Cc3ccccc3)CC2)cc1 | > 100 | 60 ± 18 | 
COc1ccc(CCN2CCC(Nc3nc4cc(C)c(C)cc4n3Cc3ccc(F)cc3)CC2)cc1 | > 100 | 91 ± 45 | 
NCC(=O)c1ccc(Br)cc1 |  |  | IC50 [1]: > 100 µM; IC50 [2]: > 100 µM
COc1ccc(CCN2CCC(Nc3nc4cc(Cl)c(Cl)cc4n3Cc3ccc(F)cc3)CC2)cc1 | > 100 | > 100 | 
O=C(/C(=N/O)n1ccnc1)c1ccc(Cl)cc1 | 103 ± 2 | 103 ± 41 | 
Clc1ccc(/C(Cn2ccnc2)=N\Nc2ccccc2)cc1 | > 100 | > 100 | 
[N-]=[N+]=NCC(=O)c1ccc(Br)cc1 | > 100 | > 100 | 
O=C(Cn1cnnc1)c1ccc(Cl)cc1 | > 100 | > 100 | 
Cc1nccn1CC(=O)CCc1ccc(Cl)cc1.Cl |  |  | IC50 HO-1 (rat spleen)/μM [1, 5]: INACTIVE; IC50 HO-2 (rat brain)/μM [2, 6]: INACTIVE
Cc1nccn1CC1(CCc2ccc(Cl)cc2)OCCO1.Cl |  |  | IC50 HO-1 (rat spleen)/μM [1, 5]: INACTIVE; IC50 HO-2 (rat brain)/μM [2, 6]: INACTIVE
Fc1ccc(-c2ccno2)cc1 | > 100 | > 100 | 
O=C(Cn1cncn1)c1ccc2c(c1)OCCO2 | 18 ± 4 | > 100 | 
c1ccc2[nH]c(CN3CCCC3)nc2c1 | > 100 | > 100 | 
OC(CCc1ccccc1)Cn1cnc(-c2ccccc2)c1-c1ccccc1 (racemic) [(±)-1-(4,5-diphenyl-imidazol-1-yl)-4-phenyl-butan-2-ol] | > 100 | > 100 | 
OC(CCc1ccc(Br)cc1)Cn1ccnc1 (racemic) [(±)-4-(4-bromophenyl)-1-(1H-imidazol-1-yl)butan-2-ol hydrochloride] | 0.14 ± 0.06 |  | 
Clc1ccc(CC[C@@]2(Cn3ccnc3)OCC(COc3ccc(-c4ccccc4)cc3)O2)cc1 (stereo in doubt) [(2R,4S)-1-{4-(biphenyl-4-yloxymethyl)-2-[2-(4-chloro-phenyl)-ethyl]-[1,3]dioxolan-2-ylmethyl}-1H-imidazole hydrochloride] | 2 ± 1 |  | 
O=C(Cn1ccnc1)c1ccc(Cl)c(Cl)c1 [1-(3,4-Dichloro-phenyl)-2-imidazol-1-yl-ethanone] | 1.24 ± 0.07 |  | 
O=C(Cn1ccnc1)C12CC3CC(CC(C3)C1)C2 [1-(adamantan-1-yl)-2-imidazol-1-yl-ethanone hydrochloride] | 7 ± 1 |  | 

Structure (SMILES) | IC50 [1, 3] [µM] | IC50 [2, 4] [µM] | also measured
Brc1ccc(C2(Cn3cncn3)OCCO2)cc1 [1-[2-(4-bromo-phenyl)-[1,3]dioxolan-2-ylmethyl]-1H-[1,2,4]triazole] |  | > 100 | 
COc1ccc(C(=O)Cn2ccnc2)cc1 [2-Imidazol-1-yl-1-(4-methoxy-phenyl)-ethanone hydrochloride] | 39 ± 13 |  | 
CC(C)(C(=O)c1ccccc1)n1ccnc1 [2-Imidazol-1-yl-2-methyl-1-phenyl-propan-1-one] |  | > 100 | 
Fc1ccc(CCC2(Cn3ccnc3)OCCO2)cc1 [2-[2-(4-fluorophenyl)ethyl]-2-[(1H-imidazol-1-yl)methyl]-1,3-dioxolane hydrochloride] |  | > 100 | 
Ic1ccc(CCC2(Cn3ccnc3)OCCO2)cc1 [2-[2-(4-iodophenyl)ethyl]-2-[(1H-imidazol-1-yl)methyl]-1,3-dioxolane hydrochloride] |  | > 100 | 
O=C(Cn1ccnc1)c1cccc2ccccc12 [2-imidazol-1-yl-1-naphthalen-1-yl-ethanone hydrochloride] | 2.2 ± 0.1 |  | 
COC(=O)c1cncn1CC(=O)CCc1ccccc1 [3-(2-Oxo-4-phenyl-butyl)-3H-imidazole-4-carboxylic acid methyl ester] | 69 ± 19 |  | 
O=C(CCc1ccc(Br)cc1)Cn1ccnc1 [4-(4-bromophenyl)-1-(1H-imidazol-1-yl)butan-2-one hydrochloride] | 1.7 ± 0.7 |  | 
O=C(CCc1ccc(Br)cc1)Cn1cncn1 [4-(4-bromophenyl)-1-[1,2,4]triazol-1-yl-butan-2-one hydrochloride] | 0.39 ± 0.02 |  | 
CC(=O)CCc1ccc(Br)cc1 [4-(4-bromophenyl)butan-2-one] | > 100 |  | 
O=C(CCc1ccc(Cl)cc1)Cn1ccnc1 [4-(4-chlorophenyl)-1-(1H-imidazol-1-yl)butan-2-one hydrochloride] | 4.7 ± 0.5 |  | 
OC(CCc1ccc(F)cc1)Cn1ccnc1 (stereo not shown) [4-(4-fluorophenyl)-1-(1H-imidazol-1-yl)butan-2-ol hydrochloride] | 1.4 ± 1.1 |  | 
O=C(CCc1ccc(F)cc1)Cn1ccnc1 [4-(4-fluorophenyl)-1-(1H-imidazol-1-yl)butan-2-one hydrochloride] | 2.7 ± 0.9 |  | 
O=C(CCc1ccccc1)Cn1cnnn1 [4-Phenyl-1-tetrazol-1-yl-butan-2-one hydrochloride] |  | 30 ± 4 | 
O=C(CCc1ccccc1)Cn1ccnn1 [4-phenyl-1-(1H-[1,2,3]triazol-1-yl)butan-2-one] |  | > 100 | 
O=C(CCc1ccccc1)Cn1nccn1 [4-phenyl-1-[1,2,3]triazol-2-yl-butan-2-one] |  | > 100 | 
O=C(CCc1ccccc1)Cn1cccn1 [4-phenyl-1-pyrazol-1-yl-butan-2-one hydrochloride] |  | > 100 | 
O=C(/C=C/c1ccccc1)CCn1ccnc1 [5-(1H-Imidazol-1-yl)-1-phenyl-pent-1-en-3-one hydrochloride] | 22.6 ± 0.8 |  | 
Nc1ccccc1SC[C@H]1CO[C@@](CCc2ccc(Cl)cc2)(Cn2ccnc2)O1 [(2R,4R)-2-[2-(4-chlorophenyl)ethyl]-2-[(1H-imidazol-1-yl)methyl]-4-[{(2-aminophenyl)thio}meth-yl]-1,3-dioxolane dihydrochloride] |  | > 100 | 
Nc1cccc(SC[C@H]2CO[C@@](CCc3ccc(Cl)cc3)(Cn3ccnc3)O2)c1 [(2R,4R)-2-[2-(4-chlorophenyl)ethyl]-2-[(1H-imidazol-1-yl)methyl]-4-[{(3-aminophenyl)thio}meth-yl]-1,3-dioxolane dihydrochloride] |  |  | IC50 [2]: > 100 µM
Nc1ccc(SC[C@H]2CO[C@@](CCc3ccc(Cl)cc3)(Cn3ccnc3)O2)cc1 [(2R,4R)-2-[2-(4-chlorophenyl)ethyl]-2-[(1H-imidazol-1-yl)methyl]-4-[{(4-aminophenyl)thio}meth-yl]-1,3-dioxolane dihydrochloride] |  |  | IC50 [2]: > 100 µM
Nc1ccccc1SC[C@@H]1CO[C@](CCc2ccc(Cl)cc2)(Cn2ccnc2)O1 [(2S,4S)-2-[2-(4-chlorophenyl)ethyl]-2-[(1H-imidazol-1-yl)methyl]-4-[{(2-aminophenyl)thio}meth-yl]-1,3-dioxolane dihydrochloride] | 5 ± 0.3 |  | 
Nc1ccc(SC[C@@H]2CO[C@](CCc3ccc(Cl)cc3)(Cn3ccnc3)O2)cc1 [(2S,4S)-2-[2-(4-chlorophenyl)ethyl]-2-[(1H-imidazol-1-yl)methyl]-4-[{(4-aminophenyl)thio}meth-yl]-1,3-dioxolane dihydrochloride] |  |  | IC50 [1]: 5 ± 2 µM
COc1ccc(CCN2CCC(Nc3nc4ccccc4n3Cc3ccc(F)cc3)CC2)cc1 [Astemizole, reference compound] |  | 30 ± 5 | 
OC(Cn1cncn1)(Cn1cncn1)c1ccc(F)cc1F [Fluconazole, reference compound] | 80 ± 6 |  | 
